Assay results as given in ChEMBL document CHEMBL1150906, “Cytotoxic and insecticidal constituents of the unripe fruit of Persea americana” (J Nat Prod, 1998).
Values after ≈ are worked out from the molar mass of the structure shown.

Columns and labels:
PC-3 = assay: Cytotoxicity against human PC3 cells by MTT assay; format: functional, cell-based
MIA PaCa-2 = assay: Cytotoxicity against human MIAPaCa2 cells by MTT assay; format: functional, cell-based
HT-29 = assay: Cytotoxicity against human HT-29 cells by MTT assay; format: functional, cell-based
[1] = Toxicity in Artemia salina; format: organism-based; conditions: in vivo
A549 = assay: Cytotoxicity against human A549 cells by MTT assay; format: functional, cell-based
MCF7 = assay: Cytotoxicity against human MCF7 cells by MTT assay; format: functional, cell-based
A498 = assay: Cytotoxicity against human A498 cells by MTT assay; format: functional, cell-based
Aedes aegypti = assay: Insecticidal activity against yellow fever mosquito larvae […] in bovine liver powder after 4 days by MES assay; format: functional; conditions: 96 h

Row | SMILES | IC50 (PC-3) [µg/mL] | IC50 (MIA PaCa-2) [µg/mL] | IC50 (HT-29) [µg/mL] | LC50 [1] [µg/mL] | IC50 (A549) [µg/mL] | IC50 (MCF7) [µg/mL] | IC50 (A498) [µg/mL] | LC50 (Aedes aegypti) [µg/mL]
1 | CCCCCCCCCCCCCCCC(O)CC(O)CO (stereo unspecified) | 1.2 (≈ 3.79 µM) | > 10 | 3 (≈ 9.48 µM) | 2.8 (≈ 8.85 µM) | 3 (≈ 9.48 µM) | 3.2 (≈ 10.1 µM) | 2.7 (≈ 8.53 µM) | 1.8 (≈ 5.69 µM)
2 | C=CCCCCCCCCCCCC(O)CC(O)CO (stereo unspecified) [AVOCADENE] | 0.46 (≈ 1.61 µM) | 5.3 (≈ 18.5 µM) | 2.6 (≈ 9.08 µM) | 1.3 (≈ 4.54 µM) | 3.4 (≈ 11.9 µM) | 4.4 (≈ 15.4 µM) | 3.6 (≈ 12.6 µM) | 0.21 (≈ 0.733 µM)
3 | C#CCCCCCCCCCCCC(O)CC(O)CO (stereo unspecified) [AVOCADYNE] | 0.061 (≈ 0.214 µM) | > 10 | 8.9 (≈ 31.3 µM) | 0.64 (≈ 2.25 µM) | 4.8 (≈ 16.9 µM) | 6.5 (≈ 22.9 µM) | 4.1 (≈ 14.4 µM) | 0.077 (≈ 0.271 µM)
4 | COc1cccc2c1C(=O)c1c(O)c3c(c(O)c1C2=O)C[C@@](O)(C(=O)CO)C[C@@H]3O[C@H]1C[C@H](N)[C@H](O)[C@H](C)O1 [DOXORUBICIN] | 0.011 (≈ 0.0202 µM) | 0.0024 (≈ 0.00442 µM) | 0.0053 (≈ 0.00975 µM) | – | 0.0022 (≈ 0.00405 µM) | 0.081 (≈ 0.149 µM) | 0.0049 (≈ 0.00902 µM) | –
5 | C=C(C)[C@H]1Cc2c(ccc3c2O[C@@H]2COc4cc(OC)c(OC)cc4[C@@H]2C3=O)O1 [ROTENONE] | – | – | – | – | – | – | – | 0.75 (≈ 1.9 µM)
